Some test systems named below: SK-MEL-28; SF-268; SF-295; OVCAR-4; HT-29; PC-3; HOP-62; SK-OV-3; T47D; Malme-3M; EKVX; SK-MEL-5; M14; NCI-H226; HCT-116; IGROV-1; SR; Hs-578T; MCF7.
Common to all, as to experiment: DTP human tumour cell line panel, 48 h

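Compound exposure: 48 hours, 5 concentrations, 96-well plates. GI50 = concentration required for 50% inhibition of growth.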 Calls of active or inactive are those of the source. No stated cut-off is given here; in the data, active = GI50 up to about 1.1 µM and inactive = higher.

`CC(C)(C)C=C=C(C(C)(C)C)P(=O)(O)O`: the GI50 in the test with SK-MEL-28, with SF-268, with SF-295, in the test with OVCAR-4, in the test on HT-29 and with PC-3 was > 100 µM (inactive) in each case. Further, the GI50 in the test with HOP-62, with SK-OV-3, in the test with T47D, with Malme-3M, in the test on EKVX and with SK-MEL-5 was > 100 µM (inactive) in each case. The GI50 in the test with M14, with NCI-H226, in the test on HCT-116, with IGROV-1, with SR and in the test with Hs-578T was > 100 µM (inactive) in each case.

As for `COc1ccc(-n2c(=O)n(C)c(=O)n2-c2c(C)c(C)c(C)c(C)c2C)cc1`, the GI50 with SK-MEL-28, in the test on SF-268, in the test with SF-295, in the test on OVCAR-4, with HT-29 and in the test with PC-3 was > 100 µM (inactive) in each case. Besides, the GI50 with HOP-62, with SK-OV-3, with T47D, in the test with Malme-3M, in the test on EKVX and in the test with SK-MEL-5 was > 100 µM (inactive) in each case. Also, the GI50 in the test with M14, with NCI-H226, with HCT-116, in the test with IGROV-1, in the test with Hs-578T and in the test with MCF7 was > 100 µM (inactive) each time.

As for `CC1(C)CC(=O)C2=C(C1)c1c(ccc3ccccc13)NC2c1cn(Cc2ccc(Cl)cc2)c2ccccc12` (configuration not stated), the GI50 (commonly the concentration that inhibits growth by half) was > 100 µM (inactive) with SF-268; 31.2 µM (inactive) with SF-295; > 100 µM (inactive) with OVCAR-4; > 100 µM (inactive) in the test with HT-29; > 100 µM (inactive) in the test with PC-3; 40.9 µM (inactive) in the test with HOP-62. For the same molecule, the GI50 is > 100 µM (inactive) with SK-OV-3; 7.19 µM (inactive) with T47D; 30.7 µM (inactive) with EKVX; > 100 µM (inactive) in the test on SK-MEL-5; > 100 µM (inactive) in the test on M14; 9.35 µM (inactive) in the test with HCT-116. The GI50 in the test with IGROV-1 was 59.2 µM (inactive); with SR it was 11.2 µM (inactive); in the test on Hs-578T it was 74.1 µM (inactive); with MCF7, > 100 µM (inactive).

Consider `CCOC(=O)c1c(NC(=S)Nc2ccc(C)cc2)sc2c1CCN(C)C2`, for which the GI50 in the test on SF-268, in the test with SF-295, with HT-29, in the test on PC-3, in the test on HOP-62 and in the test with T47D was > 100 µM (inactive) throughout. The GI50 in the test on EKVX, in the test with SK-MEL-5, in the test on M14, in the test with NCI-H226, in the test with HCT-116 and with IGROV-1 was > 100 µM (inactive) in each case. Also, the GI50 with Hs-578T and with MCF7 was > 100 µM (inactive) each time.

For `O=C(O)c1ccc(C(c2c(O)oc3ccccc3c2=O)c2c(O)oc3ccccc3c2=O)cc1`, the GI50 in the test on SK-MEL-28 is 15.2 µM (inactive); in the test on SF-268, 4.97 µM (inactive); with SF-295, > 100 µM (inactive); with HT-29, > 100 µM (inactive); in the test on PC-3, > 100 µM (inactive); with HOP-62, 43 µM (inactive). Also, the GI50 is > 100 µM (inactive) in the test with SK-OV-3; > 100 µM (inactive) with T47D; > 100 µM (inactive) in the test on SK-MEL-5; 43.1 µM (inactive) in the test with M14; > 100 µM (inactive) with HCT-116; 44.3 µM (inactive) in the test on SR. Further, the GI50 in the test with Hs-578T is 5 µM (inactive); with MCF7, > 100 µM (inactive).

For `C#CCOC(=O)[C@@H](C)c1ccc2cc(OC)ccc2c1`, the GI50 with SF-268 was > 100 µM (inactive); in the test with SF-295, > 100 µM (inactive); in the test on OVCAR-4, 96.8 µM (inactive); with PC-3, 82.6 µM (inactive); in the test with HOP-62 it was > 100 µM (inactive); in the test with SK-OV-3, > 100 µM (inactive). Besides, the GI50 is > 100 µM (inactive) in the test on T47D; 66.2 µM (inactive) with EKVX; 40.9 µM (inactive) in the test on SK-MEL-5; > 100 µM (inactive) in the test on M14; > 100 µM (inactive) in the test with NCI-H226; > 100 µM (inactive) in the test with HCT-116. Besides, the GI50 in the test on IGROV-1 is > 100 µM (inactive); in the test with SR, 17.3 µM (inactive); in the test with Hs-578T, > 100 µM (inactive); with MCF7 it was 63.8 µM (inactive).

For `C[C@]12CC(c3ccccc3O1)C(C(N)=O)C(=O)N2` (some centres not stated), the GI50 in the test with SK-MEL-28, in the test with SF-268, in the test on OVCAR-4, in the test with HT-29, with PC-3 and in the test on HOP-62 was > 100 µM (inactive) throughout. Also, the GI50 in the test on SK-OV-3, in the test on T47D, with Malme-3M, in the test with EKVX, in the test with SK-MEL-5 and in the test with M14 was > 100 µM (inactive) throughout. For the same molecule, the GI50 with NCI-H226, in the test with HCT-116, in the test with IGROV-1, in the test with Hs-578T and in the test on MCF7 was > 100 µM (inactive) throughout.

Take `Clc1sc(Cl)c2c1[C@H](Cl)C[C@@H]2Cl`: the GI50 was 17.5 µM (inactive) in the test on SK-MEL-28; 17.8 µM (inactive) in the test on SF-268; 35.3 µM (inactive) in the test on SF-295; 23.6 µM (inactive) in the test on OVCAR-4; 32.7 µM (inactive) in the test on HT-29; 38.5 µM (inactive) in the test on HOP-62. For the same molecule, the GI50 is 54 µM (inactive) in the test on SK-OV-3; 17.6 µM (inactive) with T47D; 15 µM (inactive) in the test on Malme-3M; 38.3 µM (inactive) in the test with EKVX; 32.4 µM (inactive) with SK-MEL-5; 15.1 µM (inactive) in the test with M14. The GI50 is 19.8 µM (inactive) with NCI-H226; 4.85 µM (inactive) in the test with HCT-116; 17.4 µM (inactive) in the test with IGROV-1; 58.9 µM (inactive) in the test on SR; 15.9 µM (inactive) in the test on Hs-578T; 6.52 µM (inactive) with MCF7.

With `Brc1ccc(C2(N3CCCCC3)CCCCC2)s1`, the GI50 in the test with SF-268 is 48.9 µM (inactive); with SF-295 it was 35.6 µM (inactive); in the test with OVCAR-4, 40.7 µM (inactive); in the test on HT-29 it was 23.5 µM (inactive); with PC-3, 34.1 µM (inactive); with HOP-62, 57.5 µM (inactive). For the same molecule, the GI50 with SK-OV-3 was 45.2 µM (inactive); in the test on T47D, 11.9 µM (inactive); in the test on Malme-3M it was 29.3 µM (inactive); in the test on EKVX it was 76.6 µM (inactive); in the test on SK-MEL-5 it was 0.561 µM (active); in the test on M14, 24.4 µM (inactive). The GI50 in the test with HCT-116 was > 100 µM (inactive); with IGROV-1 it was 22.2 µM (inactive); in the test on SR, 19.5 µM (inactive); in the test on Hs-578T, 36.1 µM (inactive); in the test on MCF7, 30.9 µM (inactive).

In the case of `COc1cc(N(C)C)c(OC)cc1/C=C\c1ccnc2ccccc12`, the GI50 in the test with SK-MEL-28 is 1.86 µM (inactive); in the test on SF-268 it was 3.63 µM (inactive); in the test on SF-295 it was 2.86 µM (inactive); in the test with OVCAR-4, > 10 µM (inactive); with HT-29 it was 3.1 µM (inactive); with PC-3, 2.92 µM (inactive). Further, the GI50 is 4.94 µM (inactive) in the test with HOP-62; > 10 µM (inactive) with SK-OV-3; 0.344 µM (active) with T47D; 4.86 µM (inactive) in the test on Malme-3M; 2.26 µM (inactive) in the test with EKVX; 0.815 µM (active) in the test on SK-MEL-5. Also, the GI50 in the test with M14 was 4.93 µM (inactive); with NCI-H226, 8.83 µM (inactive); in the test with HCT-116, 3.09 µM (inactive); with IGROV-1, 0.824 µM (active); in the test with Hs-578T it was 3.25 µM (inactive); in the test with MCF7, 0.462 µM (active).

For `Cn1c(-c2ccc[se]2)ccc1-c1ccc(C=O)[se]1`, the GI50 is 42.1 µM (inactive) in the test with SK-MEL-28; 16.4 µM (inactive) in the test on SF-268; 12.4 µM (inactive) with SF-295; 0.247 µM (active) in the test on OVCAR-4; 10.8 µM (inactive) with HT-29; 56.9 µM (inactive) with PC-3. Besides, the GI50 was 0.385 µM (active) with HOP-62; 16.6 µM (inactive) in the test on SK-OV-3; 0.325 µM (active) in the test on T47D; 48.5 µM (inactive) with EKVX; 20.7 µM (inactive) with SK-MEL-5; > 86.3 µM (inactive) in the test on M14. The 50% growth inhibitory concentration (GI50) was 0.865 µM (active) in the test on NCI-H226; 0.59 µM (active) in the test with HCT-116; 0.122 µM (active) with IGROV-1; 7.45 µM (inactive) with SR; 25.2 µM (inactive) in the test on Hs-578T; 0.124 µM (active) in the test with MCF7.

As to `Cc1ccc([S+]([O-])C[C@@]2(C(F)F)NC(=O)NC2=O)cc1` (some centres not stated), the GI50 in the test on SK-MEL-28, in the test on SF-268, in the test on SF-295, in the test on OVCAR-4, in the test with HT-29 and in the test on PC-3 was > 100 µM (inactive) in each case. Moreover, the GI50 in the test on HOP-62, in the test on SK-OV-3, in the test with T47D, in the test with Malme-3M, in the test on EKVX and in the test on SK-MEL-5 was > 100 µM (inactive) throughout. Further, the GI50 in the test with M14, with NCI-H226, in the test with HCT-116, in the test with IGROV-1, in the test with SR and in the test on Hs-578T was > 100 µM (inactive) in each case.
